Experimental data from patent US5914236A, “PCT-65 serotonin receptor” (United States of America, priority 1995, dated 1999).

Key:
PCT-65 receptor [1] = biological target: T1, PCT-65 receptor (Rattus norvegicus, UniProt P32305); assay: Competition binding to PCT-65 receptor (radioligand not specified); conditions: for affinity for PCT-65 (in words): expressed in mammalian cells (COS-7)
T1 construct: expressed in transfected cells; host or cells: COS-7 cells (transient, calcium phosphate, pSRα-65)

PCT-65 receptor [2] = biological target: T1, PCT-65 receptor; assay: [3H]-5-HT competition binding to PCT-65 receptor in membranes of transfected COS-7 cells; conditions: competing with [3H]-5-HT (1 nM), COS-7 membranes, 37 °C; geometric mean ± SEM (n=3)
Procedure: (§1) This plasmid construct (pSRα-65) was introduced into COS-7 cells by calcium phosphate-mediated transfection.
Specifically, transfected cells were scraped into PBS with 5 mM EDTA, spun, polytroned, spun, suspended in 100 mM Tris, 20 mM MgSO4, 1 mM EDTA, pH7.7. 0.5 ml of this solution containing 10-25 μg protein was added to 0.5 ml of a 2 mM ascorbic acid solution containing the ligand and drugs and incubated for 30 min at 37° C. Filtration was performed on GF/C paper (0.1% PEI solution pre-treatment) with a 10 ml rinse.

PCT-65 receptor [3] = biological target: T1, PCT-65 receptor; assay: [3H]-LSD competition binding to PCT-65 receptor in membranes of transfected COS-7 cells; conditions: for Ki: competing with [3H]-LSD (1.5-2.2 nM), COS-7 membranes, pH 7.4, 37 °C, 60 min, geometric mean ± SEM (n=3)
Text: as §1

5HT1A receptors = conditions: background; cited from earlier work
[4] = radioligand not given, read-out: Ki (compounds not in Table 1)

T1 sequence (P32305 45-448): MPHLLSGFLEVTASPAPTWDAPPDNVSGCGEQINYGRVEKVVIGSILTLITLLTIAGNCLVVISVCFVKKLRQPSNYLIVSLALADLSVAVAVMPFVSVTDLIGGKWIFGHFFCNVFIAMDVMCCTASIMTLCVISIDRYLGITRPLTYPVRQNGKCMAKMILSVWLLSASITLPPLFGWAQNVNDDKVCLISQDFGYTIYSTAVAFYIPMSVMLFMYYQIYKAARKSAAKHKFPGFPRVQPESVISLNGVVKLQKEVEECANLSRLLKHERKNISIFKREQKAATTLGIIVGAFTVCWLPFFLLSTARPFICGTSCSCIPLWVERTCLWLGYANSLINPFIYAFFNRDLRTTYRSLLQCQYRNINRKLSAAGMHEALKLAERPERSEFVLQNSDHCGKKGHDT

CN1[C@@H]2CC[C@H]1C[C@@H](OC(=O)c1cc(Cl)cc(Cl)c1)C2 [MDL7222]
Ki (PCT-65 receptor [1]; [4]): > 1300 nM

CNCCCN1c2ccccc2CCc2ccccc21 [Desipramine]
Ki (PCT-65 receptor [1]): > 1300 nM

COc1cc(N)c(Cl)cc1C(=O)NC1CN2CCC1CC2 (stereo not drawn) [Zacopride]
Ki (PCT-65 receptor [1]; [4]): > 1300 nM

COc1cc(N)c(Cl)cc1C(=O)NC1CCN2CCCC1C2 (stereo not drawn) [BRL24294]
Ki (PCT-65 receptor [1]; [4]): > 1300 nM

CN(C)CCC=C1c2ccccc2CCc2ccccc21 [Amitriptyline]
Ki (PCT-65 receptor [2]): 92.8 ± 15.8 nM
Ki (PCT-65 receptor [3]): 124 ± 13.4 nM
Ki (PCT-65 receptor [1]): < 100 nM
affinity for PCT-65 (in words) (PCT-65 receptor [1]): high affinity

CNS(=O)(=O)Cc1ccc2[nH]cc(CCN(C)C)c2c1 [Sumatriptan]
Ki (PCT-65 receptor [2]): 251 ± 36.1 nM

CN1C[C@@H](NS(=O)(=O)N(C)C)C[C@@H]2c3cccc4c3c(cn4C)C[C@H]21 [Mesulergine]
Ki (PCT-65 receptor [2]): 21.1 ± 2.19 nM
Ki (PCT-65 receptor [3]): 7.13 ± 0.39 nM
affinity for PCT-65 (in words) (PCT-65 receptor [1]): relatively high affinity

c1ccc2c(N3CCNCC3)cccc2c1 [1(1-Napthyl)piperazine]
Ki (PCT-65 receptor [2]): 18.4 ± 0.77 nM
Ki (PCT-65 receptor [3]): 33.8 ± 1.68 nM

NCCc1c[nH]c2ccccc12 [Tryptamine]
Ki (PCT-65 receptor [2]): 16.4 ± 1.01 nM
Ki (PCT-65 receptor [3]): 32.9 ± 0.76 nM

COc1ccccc1N1CCNCC1 [2-MPP]
Ki (PCT-65 receptor [2]): 125 ± 8.4 nM
Ki (PCT-65 receptor [3]): 244 ± 16.5 nM

Clc1cccc(N2CCNCC2)c1 [mCPP]
Ki (PCT-65 receptor [2]): 256 ± 9.9 nM
Ki (PCT-65 receptor [3]): 352 ± 54.9 nM

CCCN1C[C@H](CSC)C[C@@H]2c3cccc4[nH]cc(c34)C[C@H]21 [Pergolide]
Ki (PCT-65 receptor [2]): 1.01 ± 0.03 nM
Ki (PCT-65 receptor [3]): 4.78 ± 0.18 nM
affinity for PCT-65 (in words) (PCT-65 receptor [1]): relatively high affinity

CN1C[C@H](CNC(=O)OCc2ccccc2)C[C@@H]2c3cccc4c3c(cn4C)C[C@H]21 [Metergoline]
Ki (PCT-65 receptor [2]): 6.21 ± 1 nM
Ki (PCT-65 receptor [3]): 2.04 ± 0.15 nM
potency in competition with [3H]-LSD compared with [3H]-5-HT (in words) (PCT-65 receptor [3]; relative to competition with [3H]-5-HT): somewhat greater potency

c1ccc2c(c1)OCC(C1=NCCN1)O2 (stereo not drawn) [Idazoxan]
Ki (PCT-65 receptor [1]; [4]): > 1300 nM

CC(C)NCC(O)COc1cccc2[nH]ccc12 (stereo not drawn) [Pindolol]
Ki (PCT-65 receptor [1]): > 1300 nM

NCCc1c[nH]c2ccc(O)cc12 [5-Hydroxytryptamine, 5-hydroxytryptamine]
affinity for PCT-65 (in words) (PCT-65 receptor [1]): high affinity

CN1C2CCCC1CC(NC(=O)c1nn(C)c3ccccc13)C2 (stereo not drawn) [BRL43694]
Ki (PCT-65 receptor [1]; [4]): > 1300 nM

COc1ccc2[nH]cc(CCNC(C)=O)c2c1 [Melotonin]
Ki (PCT-65 receptor [1]): > 1300 nM

COc1ccccc1N1CCN(CCCCN2C(=O)c3ccccc3C2=O)CC1 [NAN-190]
Ki (PCT-65 receptor [1]; [4]): > 1300 nM

FC(F)(F)c1cccc(N2CCNCC2)c1 [TFMPP]
Ki (PCT-65 receptor [2]): 236 ± 5.5 nM
Ki (PCT-65 receptor [3]): 533 ± 33 nM

NCC(O)c1ccc(O)cc1 (stereo not drawn) [Octopamine]
Ki (PCT-65 receptor [1]): > 1300 nM

CC(C)n1c(=O)n(C(=O)NC2CC3CCC(C2)N3C)c2ccccc21 (stereo not drawn) [BIMU8]
Ki (PCT-65 receptor [1]): > 1300 nM

NCCc1c[nH]c2ccc(C(N)=O)cc12 [5-Carboxamidotryptamine]
Ki (PCT-65 receptor [2]): 0.16 ± 0.05 nM
Ki (PCT-65 receptor [3]): 0.33 ± 0.01 nM

CCN(CC)C(=O)[C@@H]1C=C2c3cccc4[nH]cc(c34)C[C@H]2N(C)C1 [LSD]
affinity for PCT-65 (in words) (PCT-65 receptor [1]): relatively high affinity

CCCN(CCC)C1CCc2cccc(O)c2C1 (stereo not drawn) [8-OH-DPAT]
Ki (PCT-65 receptor [2]): 35 ± 5.62 nM
Ki (PCT-65 receptor [3]): 35.4 ± 5.24 nM
affinity for PCT-65 (in words) (PCT-65 receptor [1]): relatively low affinity

O=C1c2ccccc2S(=O)(=O)N1CCCCN1CCN(c2ncccn2)CC1 [ipsapirone]
affinity for 5HT1A receptors in the brain (in words) (5HT1A receptors): high affinities

CN1CCN(C2=Nc3ccccc3Oc3ccc(Cl)cc32)CC1 [Loxapine]
Ki (PCT-65 receptor [2]): 133 ± 36.1 nM
Ki (PCT-65 receptor [3]): 172 ± 7.8 nM
affinity for PCT-65 (in words) (PCT-65 receptor [1]): low affinity
affinity for PCT-65 (in words) (PCT-65 receptor [1]; listed as loxipine): high affinity

CCNC(C)Cc1cccc(C(F)(F)F)c1 (stereo not drawn) [Fenflurmine]
Ki (PCT-65 receptor [1]): > 1300 nM

COc1ccc2[nH]cc(CCN(C)C)c2c1 [5-Methoxy-N,N-dimethytryptamine]
Ki (PCT-65 receptor [2]): 8.26 ± 0.73 nM
Ki (PCT-65 receptor [3]): 20.9 ± 0.86 nM

O=C(c1ccc(F)cc1)C1CCN(CCn2c(=O)[nH]c3ccccc3c2=O)CC1 [Ketanserin]
Ki (PCT-65 receptor [2]): 265 ± 32.1 nM
Ki (PCT-65 receptor [3]): 207 ± 19.6 nM

CN1C2CCC1CC(NC(=O)c1nn(C)c3ccccc13)C2 (stereo not drawn) [LY-278584]
Ki (PCT-65 receptor [1]): > 1300 nM

CC(C)C[C@H]1C(=O)N2CCC[C@H]2[C@]2(O)O[C@](NC(=O)[C@@H]3C=C4c5cccc6[nH]c(Br)c(c56)C[C@H]4N(C)C3)(C(C)C)C(=O)N12 [Bromocriptine]
Ki (PCT-65 receptor [2]): 48.8 ± 7.9 nM
Ki (PCT-65 receptor [3]): 10.7 ± 0.47 nM

CN1C2CCC1CC(NC(=O)n1c(=O)[nH]c3ccccc31)C2 (stereo not drawn) [DAU6215]
Ki (PCT-65 receptor [1]; [4]): > 1300 nM

CC1(C)CC(=O)N(CCCCN2CCN(c3ncccn3)CC2)C(=O)C1 [gepirone]
affinity for 5HT1A receptors in the brain (in words) (5HT1A receptors): high affinities

Cc1nc2sccn2c(=O)c1CCN1CCC(=C(c2ccc(F)cc2)c2ccc(F)cc2)CC1 [Ritanserin]
Ki (PCT-65 receptor [2]): 15 ± 3.4 nM
Ki (PCT-65 receptor [3]): 21.7 ± 2.1 nM

NCCc1ccc(O)c(O)c1 [Dopamine]
Ki (PCT-65 receptor [1]; [4]): > 1300 nM

c1ccc2nc(N3CCNCC3)ccc2c1 [Quipazine]
Ki (PCT-65 receptor [1]; [4]): > 1300 nM

CN(C)CCCC1(c2ccc(F)cc2)OCc2cc(C#N)ccc21 (stereo not drawn) [Citalopram]
Ki (PCT-65 receptor [1]): > 1300 nM

CCn1c(=O)n(C(=O)NC2CC3CCC(C2)N3C)c2ccccc21 (stereo not drawn) [BIMU1]
Ki (PCT-65 receptor [1]; [4]): > 1300 nM

NCCc1c[nH]cn1 [Histamine]
Ki (PCT-65 receptor [1]; [4]): > 1300 nM

CC[C@@H](CO)NC(=O)[C@@H]1C=C2c3cccc4c3c(cn4C)C[C@H]2N(C)C1 [Methysergide]
Ki (PCT-65 receptor [2]): 13.4 ± 0.8 nM
Ki (PCT-65 receptor [3]): 12.6 ± 0.84 nM
